Experimental data: US4499091A, “1-Amino (or substituted amino)-1,4-dihydro-4-oxo-6-fluoro-7-heterylquinoline-3-carboxylic acids and their use as antibacterial agents” (Sterling Drug Inc., priority 1983, dated 1985)
Converted amounts (≈) assume the structure as drawn. Where two headings read alike, the source gives them in different places.

Assays:
[1] = tested on: Escherichia coli Vogel; assay: in vitro antibacterial activity, serial dilution (MIC); format: cell-based; settings: 18-20 hours static incubation, read-out: Minimal Inhibitory Concentration (MIC)
Method: (§1) The in vitro antibacterial activity of the compounds of the invention was determined by conventional serial dilution procedures. Bacterial cultures were grown in tryptose phosphate broth or brain heart infusion broth (containing heat-inactivated normal horse serum for tests with S. pyogenes) overnight at 37° C. and subsequently diluted in double strength broth to provide bacterial inocula of about 2×10^5 cells/ml. Aqueous solutions of the compounds of the invention were prepared by dissolving the free acid form in 0.5N sodium hydroxide. The solutions were diluted with sterile distilled water to 1000 mcg/ml of compound in terms of the free acid. Serial two-fold dilutions of the compound stock solutions were prepared in water and 0.5 ml of each dilution was transferred to sets of tubes, one set for each bacterial inoculum.

[2] = tested on: Klebsiella pneumoniae 39645; assay: as above; format: cell-based; settings: 18-20 hours static incubation, read-out: Minimal Inhibitory Concentration (MIC)
Method: as §1

[3] = tested on: Proteus mirabilis MGH-1; assay: as above; format: cell-based; settings: MGH1, 18-20 hours static incubation, read-out: Minimal Inhibitory Concentration (MIC)
Method: as §1

[4] = tested on: Proteus vulgaris 9920; assay: as above; format: cell-based; settings: 18-20 hours static incubation, read-out: Minimal Inhibitory Concentration (MIC)
Method: as §1

[5] = tested on: Pseudomonas aeruginosa MGH-2; assay: as above; format: cell-based; settings: MGH2, 18-20 hours static incubation, read-out: Minimal Inhibitory Concentration (MIC)
Method: as §1

[6] = tested on: Streptococcus pyogenes C203; assay: as above; format: cell-based; settings: 18-20 hours static incubation, read-out: Minimal Inhibitory Concentration (MIC)
Method: as §1

[7] = tested on: Escherichia coli Vogel; assay: in vivo antibacterial activity in mice infected with E. coli (PD50); set-up: species or system mouse (female) infected with Escherichia coli; settings: 168 h
Method: (§2) The in vivo antibacterial activity of the compounds of the invention was determined in female mice, 18-20 grams each, by the following procedure:
(§3) Aqueous solutions of the compounds to be tested were prepared by dissolving the free acid form in dilute sodium hydroxide and diluting the solution with distilled water to be desired volume.
(§4) Cultures of Escherichia coli Vogel prepared in brain heart infusion broth, cultures of Klebsiella pneumoniae 39645 grown in tryptose phosphate broth with 5% rabbit serum diluted in the same broth and cultures of Pseudomonas aeruginosa MGH-2 grown on brain heart infusion agar and suspended in physiological saline, were used to infect the mice as follows:
Mice infected with E. coli were medicated once (0.5 ml) one-half hour post infection, the test compound being administered by either the subcutaneous (s.c.) or oral (p.o.) route. Deaths were recorded daily for seven days.
(§5) Groups of ten animals each for four or five dose levels were thus treated and the number of survivors in each group recorded. The fifty percent protective dose values (PD50) were then calculated.

[8] = tested on: Klebsiella pneumoniae 39645; assay: in vivo antibacterial activity in mice infected with K. pneumoniae (PD50); set-up: species or system mouse (female) infected with Klebsiella pneumoniae
Method: as §2, §3, §4
K. pneumoniae: mice were inoculated intramuscularly in the right hind leg with 0.2 ml of the bacterial test inoculum (2.05×10^4 cells/ml).
Mice infected with K. pneumoniae were medicated at the following times: seventeen hours and one hour preinfection, six hours postinfection and twice a day for the next three days. The test compound was administered by both subcutaneous (0.2 ml) and oral (0.5 ml) routes. Deaths were recorded daily for fourteen days.
as §5

[9] = tested on: Staphylococcus aureus Smith; assay: in vitro antibacterial activity, serial dilution (MIC); format: cell-based; settings: 18-20 hours static incubation, read-out: Minimal Inhibitory Concentration (MIC)
Method: as §1

[10] = sc, mouse, E. coli, s.c., once one-half hour post infection, 7 days, read-out: Protective Dose (PD50)
[11] = Klebsiella pneumoniae, 39645, sc, 336 h, mouse, K. pneumoniae, s.c., pre- and postinfection, 14 days, read-out: Protective Dose (PD50)

Row | Compound | MIC [1] [µg/mL] | MIC [2] [µg/mL] | MIC [3] [µg/mL] | MIC [4] [µg/mL] | MIC [5] [µg/mL] | MIC [6] [µg/mL] | ED50 [7, 10] [mg/kg] | ED50 [8, 11] [mg/kg] | MIC [9] [µg/mL] | ED50 ([7]; sc, read-out: Protective Dose (PD50)) [mg/kg] | ED50 ([8]; Klebsiella pneumoniae, 39645, sc, 336 h, read-out: Protective Dose (PD50)) [mg/kg] | ED50 ([7]; mouse, E. coli, route not stated, read-out: fifty percent protective dose) [mg/kg] | ED50 ([8]; Klebsiella pneumoniae, 39645, 336 h, mouse, K. pneum., route not stated, read-out: fifty percent protective dose) [mg/kg] | ED50 ([8]; Klebsiella pneumoniae, 39645, po, 336 h, mouse, K. pneumoniae, p.o., pre- and postinfection, 14 days, read-out: Protective Dose (PD50)) [mg/kg]
1 | CN1CCN(c2cc3c(cc2F)c(=O)c(C(=O)O)cn3N(C)C)CC1 [Example 7, 6-Fluoro-1-dimethylamino-1,4-dihydro-7-(4-methyl-1-piperazinyl)-4-oxo-3-quinolinecarboxylic acid] | 0.5 (≈ 1.44 µM) | 2 (≈ 5.74 µM) | 2 (≈ 5.74 µM) | 0.12 (≈ 0.344 µM) | 2 (≈ 5.74 µM) | 31.3 (≈ 89.8 µM) | 1.66 | 29 |  |  |  |  |  | 
2 | CCCNn1cc(C(=O)O)c(=O)c2cc(F)c(Cl)cc21 [7-Chloro-6-fluoro-1,4-dihydro-4-oxo-1-propylamino-3-quinolinecarboxylic acid] | 15.6 (≈ 52.2 µM) | 31.3 (≈ 105 µM) |  | 3.9 (≈ 13.1 µM) |  | 15.6 (≈ 52.2 µM) |  |  | 15.6 (≈ 52.2 µM) |  |  |  |  | 
3 | CN1CCN(c2cc3c(cc2F)c(=O)c(C(=O)O)cn3N(C)C=O)CC1 [Example 23, 6-Fluoro-1-(N-formylmethylamino)-1,4-dihydro-7-(4-methyl-1-piperazinyl)-4-oxo-3-quinolinecarboxylic acid] | 1.95 (≈ 5.38 µM) | 1.95 (≈ 5.38 µM) |  | 1 (≈ 2.76 µM) |  |  | 10.4 | > 200 | 15.6 (≈ 43.1 µM) |  |  |  |  | 
4 | Nn1cc(C(=O)O)c(=O)c2cc(F)c(N3CCNCC3)cc21 [Example 2, 1-Amino-6-fluoro-1,4-dihydro-4-oxo-7-(1-piperazinyl)-3-quinolinecarboxylic acid] |  |  |  |  | 62.5 (≈ 204 µM) |  |  |  | 31.3 (≈ 102 µM) | > 200 | > 200 |  |  | 
5 | CNn1cc(C(=O)O)c(=O)c2cc(F)c(N3CCCNCC3)cc21 [Example 19, 6-Fluoro-7-(hexahydro-1H-1,4-diazapin-1-yl)-1,4-dihydro-1-methylamino-4-oxo-3-quinolinecarboxylic acid] |  | 15.6 (≈ 46.7 µM) | 1.95 (≈ 5.83 µM) | 1 (≈ 2.99 µM) |  | 31.3 (≈ 93.6 µM) | 2.5 | > 50 |  |  |  |  |  | 
6 | CNn1cc(C(=O)O)c(=O)c2cc(F)c(N3CC[N+](C)([O-])CC3)cc21 [4'-oxide] | 16 (≈ 45.7 µM) | 32 (≈ 91.3 µM) | 32 (≈ 91.3 µM) |  |  |  |  |  |  |  |  |  |  | 
7 | CCCN1CCN(c2cc3c(cc2F)c(=O)c(C(=O)O)cn3NC)CC1 [Example 11, 6-Fluoro-1,4-dihydro-1-methylamino-4-oxo-7-(4-propyl-1-piperazinyl)-3-quinolinecarboxylic acid] | 0.25 (≈ 0.69 µM) | 0.5 (≈ 1.38 µM) | 1 (≈ 2.76 µM) | 0.25 (≈ 0.69 µM) |  |  | 14.8 | 81.5 | 1.95 (≈ 5.38 µM) |  |  |  |  | 
8 | CNn1cc(C(=O)O)c(=O)c2cc(F)c(Cl)cc21 [7-Chloro-6-fluoro-1,4-dihydro-1-methylamino-4-oxo-3-quinolinecarboxylic acid] | 1 (≈ 3.69 µM) | 1.95 (≈ 7.2 µM) | 1 (≈ 3.69 µM) |  |  |  |  |  |  |  |  | 56 | 186 | 
9 | C=CCNn1cc(C(=O)O)c(=O)c2cc(F)c(N3CCN(C)CC3)cc21 [Example 12, 6-Fluoro-1,4-dihydro-7-(4-methyl-1-piperazinyl)-4-oxo-1-(2-propenylamino)-3-quinolinecarboxylic acid] | 1 (≈ 2.77 µM) | 1.95 (≈ 5.41 µM) |  | 1 (≈ 2.77 µM) | 15.6 (≈ 43.3 µM) | 62.5 (≈ 173 µM) | 18.9 | 141 |  |  |  |  |  | 
10 | CCN1CCN(c2cc3c(cc2F)c(=O)c(C(=O)O)cn3NC)CC1 [Example 8, 7-(4-Ethyl-1-piperazinyl)-6-fluoro-1,4-dihydro-1-methylamino-4-oxo-3-quinolinecarboxylic acid] | 0.5 (≈ 1.44 µM) | 0.5 (≈ 1.44 µM) | 1 (≈ 2.87 µM) | 0.25 (≈ 0.718 µM) | 2 (≈ 5.74 µM) |  | 1.4 | 15.1 | 1 (≈ 2.87 µM) |  |  |  |  | 
11 | CNn1cc(C(=O)O)c(=O)c2cc(F)c(N3CCOCC3)cc21 [Example 13, 6-Fluoro-1,4-dihydro-1-methylamino-7-(4-morpholinyl)-4-oxo-3-quinolinecarboxylic acid] | 0.5 (≈ 1.56 µM) | 1.95 (≈ 6.07 µM) |  | 0.125 (≈ 0.389 µM) | 15.6 (≈ 48.6 µM) | 15.6 (≈ 48.6 µM) | 16.3 | 200 | 1 (≈ 3.11 µM) |  |  |  |  | 
12 | CNn1cc(C(=O)O)c(=O)c2cc(F)c(N3CCSCC3)cc21 [Example 21, 6-Fluoro-1,4-dihydro-1-methylamino-4-oxo-7-(4-thiomorpholinyl)-3-quinolinecarboxylic acid] | 0.5 (≈ 1.48 µM) | 0.5 (≈ 1.48 µM) | 2 (≈ 5.93 µM) |  | 4 (≈ 11.9 µM) | > 8 | > 200 |  | 0.5 (≈ 1.48 µM) |  |  |  |  | 
13 | CNn1cc(C(=O)O)c(=O)c2cc(F)c(N3CCC(O)CC3)cc21 [Example 17, 6-Fluoro-1,4-dihydro-7-(4-hydroxy-1-piperidinyl)-1-methylamino-4-oxo-3-quinolinecarboxylic acid] | 1.95 (≈ 5.82 µM) |  |  | 0.125 (≈ 0.373 µM) |  | 31.3 (≈ 93.3 µM) | 12.5 | 200 | 1.95 (≈ 5.82 µM) |  |  |  |  | 
14 | CNn1cc(C(=O)O)c(=O)c2cc(F)c(N3CCCCC3)cc21 [Example 15, 6-Fluoro-1,4-dihydro-1-methylamino-4-oxo-7-(1-piperidinyl)-3-quinolinecarboxylic acid] |  |  |  | 0.5 (≈ 1.57 µM) |  |  | > 200 | > 200 | 1.95 (≈ 6.11 µM) |  |  |  |  | 
15 | CNn1cc(C(=O)O)c(=O)c2cc(F)c(N3CCN(C)CC3)cc21 [Example 1, 6-Fluoro-1,4-dihydro-1-methylamino-7-(4-methyl-1-piperazinyl)-4-oxo-3-quinolinecarboxylic acid] | 0.25 (≈ 0.748 µM) | 0.25 (≈ 0.748 µM) | 0.5 (≈ 1.5 µM) | 0.125 (≈ 0.374 µM) | 1 (≈ 2.99 µM) |  |  | 8.8 |  |  |  |  |  | 10.6
16 | CCOC(=O)c1cn(NC)c2cc(N3CCN(C)CC3)c(F)cc2c1=O [Example 9, Ethyl 6-fluoro-1,4-dihydro-1-methylamino-7-(4-methyl-1-piperazinyl)-4-oxo-3-quinolinecarboxylate] | 62.5 (≈ 172 µM) | 62.5 (≈ 172 µM) | 12.5 (≈ 34.5 µM) | 31.3 (≈ 86.4 µM) |  |  | 4.4 | > 200 |  |  |  |  |  | 
17 | CNn1cc(C(=O)O)c(=O)c2cc(F)c(N3CCCC3)cc21 [Example 16, 6-Fluoro-1,4-dihydro-1-methylamino-4-oxo-7-(1-pyrrolidinyl)-3-quinolinecarboxylic acid] | 1 (≈ 3.28 µM) |  |  | 0.5 (≈ 1.64 µM) |  |  | > 200 | > 200 | 0.5 (≈ 1.64 µM) |  |  |  |  | 
18 | CNn1cc(C(=O)O)c(=O)c2cc(F)c(N3CCN(C(C)=O)CC3)cc21 [Example 14, 7-(4-Acetyl-1-piperazinyl)-6-fluoro-1,4-dihydro-1-methylamino-4-oxo-3-quinolinecarboxylic acid] | 15.6 (≈ 43.1 µM) |  | 15.6 (≈ 43.1 µM) | 1.95 (≈ 5.38 µM) | 62.5 (≈ 172 µM) | 31.3 (≈ 86.4 µM) | 100 | 100 |  |  |  |  |  | 
19 | CNn1cc(C(=O)O)c(=O)c2cc(F)c(N3CCCC(O)C3)cc21 (stereo not drawn) [Example 18, 6-Fluoro-1,4-dihydro-7-(3-hydroxy-1-piperidinyl)-1-methylamino-4-oxo-3-quinolinecarboxylic acid] |  |  |  | 0.25 (≈ 0.746 µM) | 31.3 (≈ 93.3 µM) | 15.6 (≈ 46.5 µM) | 38 | > 200 | 1.95 (≈ 5.82 µM) |  |  |  |  | 
20 | CN1CCN(c2cc3c(cc2F)c(=O)c(C(=O)O)cn3N)CC1 [Example 3, 1-Amino-6-fluoro-1,4-dihydro-4-oxo-7-(4-methyl-1-piperazinyl)-3-quinolinecarboxylic acid] | 2 (≈ 6.24 µM) | 2 (≈ 6.24 µM) | 2 (≈ 6.24 µM) | 1 (≈ 3.12 µM) | 15.6 (≈ 48.7 µM) | 62.5 (≈ 195 µM) | 3.13 | 30.5 |  |  |  |  |  | 
21 | CCNn1cc(C(=O)O)c(=O)c2cc(F)c(N3CCN(C)CC3)cc21 [Example 5, 1-Ethylamino-6-fluoro-1,4-dihydro-7-(4-methyl-1-piperazinyl)-4-oxo-3-quinolinecarboxylic acid] | 0.5 (≈ 1.44 µM) | 0.5 (≈ 1.44 µM) |  | 0.25 (≈ 0.718 µM) |  | 31.3 (≈ 89.8 µM) | 4.1 | 90 |  |  |  |  |  | 
